Reference: PubChem BioAssay (NCI)
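Dose response: 5 concentrations. Exposure: 48 h. Format: 96-well plates. Endpoint: linear interpolation; highest concentration if not reached. TGI: total growth inhibition.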

Assays:
Assay in all cases: inhibition of tumour cell growth, NCI panel, 48 h
[1] = tested on: 786-0 renal
[2] = tested on: A498 renal
[3] = tested on: A549 NSCLC
[4] = tested on: ACHN renal
[5] = tested on: BT-549 breast
[6] = tested on: CAKI-1 renal
[7] = tested on: CCRF-CEM leukemia
[8] = tested on: COLO 205 colon
[9] = tested on: DU-145 prostate
[10] = tested on: EKVX NSCLC
[11] = tested on: HCC-2998 colon
[12] = tested on: HCT-116 colon
[13] = tested on: HCT-15 colon
[14] = tested on: HL-60(TB) leukemia
[15] = tested on: HOP-62 NSCLC
[16] = tested on: HOP-92 NSCLC
[17] = tested on: HS 578T breast
[18] = tested on: HT29 colon
[19] = tested on: IGROV1 ovarian
[20] = tested on: K-562 leukemia
[21] = tested on: KM12 colon
[22] = tested on: LOX IMVI melanoma
[23] = tested on: M14 melanoma
[24] = tested on: MALME-3M melanoma
[25] = tested on: MCF7 breast
[26] = tested on: MDA-MB-231 breast
[27] = tested on: MDA-MB-435
[28] = tested on: MDA-N
[29] = tested on: MOLT-4 leukemia
[30] = tested on: NCI-H226 lung
[31] = tested on: NCI-H23 lung
[32] = tested on: NCI-H460 lung
[33] = tested on: NCI-H522 lung
[34] = tested on: NCI/ADR-RES ovarian
[35] = tested on: OVCAR-3 ovarian
[36] = tested on: OVCAR-4 ovarian
[37] = tested on: OVCAR-5 ovarian
[38] = tested on: OVCAR-8 ovarian
[39] = tested on: PC-3 prostate
[40] = tested on: RPMI-8226 leukemia
[41] = tested on: RXF 393 renal
[42] = tested on: SF-268 CNS
[43] = tested on: SF-295 CNS
[44] = tested on: SF-539 CNS
[45] = tested on: SK-MEL-2 melanoma
[46] = tested on: SK-MEL-28 melanoma
[47] = tested on: SK-MEL-5 melanoma
[48] = tested on: SK-OV-3 ovarian
[49] = tested on: SN12C renal
[50] = tested on: SNB-19 CNS
[51] = tested on: SNB-75 CNS
[52] = tested on: SR leukemia
[53] = tested on: SW-620 colon
[54] = tested on: T-47D breast
[55] = tested on: TK-10 renal
[56] = tested on: U251 CNS
[57] = tested on: UACC-257 melanoma
[58] = tested on: UACC-62 melanoma
[59] = tested on: UO-31 renal
[60] = tested on: DLD-1 colon
[61] = tested on: DMS 114 small cell lung
[62] = tested on: DMS 273 small cell lung
[63] = tested on: HOP-18 NSCLC
[64] = tested on: KM20L2 colon
[65] = tested on: M19-MEL melanoma
[66] = tested on: SNB-78 CNS
[67] = tested on: XF 498 CNS

In the case of `COc1ccc2nc3ccc(OC)cc3c(SCCCl)c2c1`, the TGI [1] was 30.1 µM, the TGI [2] was > 91.5 µM and the TGI [3] was > 100 µM. For the same molecule, the TGI [4] was > 100 µM, the TGI [5] was > 100 µM and the TGI [6] was 66.8 µM. The TGI [7] was 16 µM, the TGI [8] was > 72.3 µM and the TGI [9] was > 65 µM. For the same molecule, the TGI [10] was > 100 µM, the TGI [11] was > 100 µM and the TGI [12] was > 43.5 µM. The TGI [13] was > 100 µM, the TGI [14] was > 21.1 µM and the TGI [15] was > 78.3 µM. For the same molecule, the TGI [16] was > 42.2 µM, the TGI [17] was > 100 µM and the TGI [18] was > 52.4 µM. For the same molecule, the TGI [19] was > 100 µM, the TGI [20] was > 46.5 µM and the TGI [21] was > 71 µM. The TGI [22] was 21.3 µM, the TGI [23] was > 21.3 µM and the TGI [24] was > 100 µM. The TGI [25] was > 47 µM, the TGI [26] was 99.3 µM and the TGI [27] was > 49.5 µM. For the same molecule, the TGI [28] was > 100 µM, the TGI [29] was 16.4 µM and the TGI [30] was > 100 µM. The TGI [31] was > 100 µM, the TGI [32] was > 100 µM and the TGI [33] was > 100 µM. For the same molecule, the TGI [34] was > 58.7 µM, the TGI [35] was > 100 µM and the TGI [36] was > 85 µM. The TGI [37] was > 40.8 µM, the TGI [38] was > 35.2 µM and the TGI [39] was > 100 µM. The TGI [40] was 10.6 µM, the TGI [41] was > 48.1 µM and the TGI [42] was > 100 µM. The TGI [43] was > 100 µM, the TGI [44] was > 50.5 µM and the TGI [45] was > 85.1 µM. The TGI [46] was > 100 µM, the TGI [47] was > 100 µM and the TGI [48] was > 100 µM. For the same molecule, the TGI [49] was > 100 µM, the TGI [50] was > 85.5 µM and the TGI [51] was > 96.8 µM. The TGI [52] was 15.6 µM, the TGI [53] was > 100 µM and the TGI [54] was > 97.2 µM. For the same molecule, the TGI [55] was > 100 µM, the TGI [56] was > 100 µM and the TGI [57] was > 100 µM. The TGI [58] was > 77.6 µM and the TGI [59] was > 100 µM.
`COc1ccc(C2Cc3cc(OC)c(OC)c(OC)c3C2)cc1` (stereo unspecified) was tested, and the TGI [1] was > 100 µM, the TGI [2] was > 100 µM and the TGI [3] was 76.2 µM. For the same molecule, the TGI [4] was > 100 µM, the TGI [6] was > 100 µM and the TGI [7] was > 100 µM. The TGI [8] was > 100 µM, the TGI [60] was > 100 µM and the TGI [61] was > 100 µM. For the same molecule, the TGI [62] was > 100 µM, the TGI [10] was > 100 µM and the TGI [11] was > 100 µM. The TGI [12] was > 100 µM, the TGI [13] was > 100 µM and the TGI [63] was > 100 µM. For the same molecule, the TGI [15] was > 100 µM, the TGI [18] was 79.6 µM and the TGI [19] was > 100 µM. For the same molecule, the TGI [20] was > 100 µM, the TGI [21] was > 100 µM and the TGI [64] was > 100 µM. For the same molecule, the TGI [22] was > 100 µM, the TGI [23] was > 100 µM and the TGI [65] was > 100 µM. For the same molecule, the TGI [24] was > 100 µM, the TGI [29] was 61.6 µM and the TGI [30] was > 100 µM. For the same molecule, the TGI [31] was > 100 µM, the TGI [32] was > 100 µM and the TGI [35] was > 100 µM. The TGI [36] was > 100 µM, the TGI [37] was > 100 µM and the TGI [38] was > 100 µM. For the same molecule, the TGI [40] was 98.9 µM, the TGI [42] was > 100 µM and the TGI [43] was > 100 µM. For the same molecule, the TGI [44] was > 100 µM, the TGI [45] was > 100 µM and the TGI [46] was > 100 µM. The TGI [47] was 31.3 µM, the TGI [48] was > 100 µM and the TGI [49] was > 100 µM. For the same molecule, the TGI [50] was > 100 µM, the TGI [51] was 84.8 µM and the TGI [66] was > 100 µM. For the same molecule, the TGI [53] was > 100 µM, the TGI [55] was > 100 µM and the TGI [56] was > 100 µM. For the same molecule, the TGI [57] was > 100 µM, the TGI [58] was > 100 µM and the TGI [59] was 64.8 µM. For the same molecule, the TGI [67] was 54.5 µM.
